Consider 1 molecule from publication PMC8950706, “Influence of Substitutions in the Binding Motif of Proline-Rich Antimicrobial Peptide ARV-1502 on 70S Ribosome Binding and Antimicrobial Activity” (International Journal of Molecular Sciences, 2022).

The structures appear in SMILES notation. Counter-ions that a name gives are not always drawn.

In one assay the test system is E. coli 70S ribosome. Nature of the assay: Competitive fluorescence polarization assay against Cf-ARV-1502 (Ki). In kind it is binding, E. coli BW25113. To be noted: 20 nmol/L Cf-ARV-1502, 0.5 µmol/L ribosome, 28 °C, 90 min + 90 min, Ki calculated from IC50. The protocol: E. coli 70S ribosomes were prepared using a previously described protocol that was slightly modified. Briefly, E. coli BW25113 was cultivated in Luria-Bertani (LB) medium and cells were harvested after reaching an optical density of ~4 at 600 nm by centrifugation (5000× g, 15 min, 4 °C, Rotor JLA 8.100, Avanti J-20 XP, Beckmann Coulter, Krefeld, Germany). The cell pellets were frozen and stored at −80 °C. Cells were resuspended in ribosome buffer (2 mL/g cells; 20 mmol/L HEPES-KOH, 6 mmol/L MgCl2, 30 mmol/L NH4Cl, 4 mmol/L 2-mercaptoethanol, pH 7.6). Lysozyme (0.25 g/L cell suspension) was added, and the mixture was incubated on ice for 30 min. Cells were disrupted using the bead mill homogenizer FastPrep-24™ 5G (40 s, 4 m/s, 6 cycles, MP Biomedicals Germany GmbH, Eschwege, Germany) and zirconia/silica beads (0.1 mm diameter). The lysate was centrifuged (1500× g, 5 min, 4 °C, Rotor S4180, Allegra 21R, Beckmann Coulter) and the supernatant was incubated with DNase (5 U/mL) on ice for 60 min.
Dissociation and inhibitory constants were determined in black 384-well-plates (Greiner Bio-One GmbH, Frickenhausen, Germany) blocked with 0.5% (w/v) casein in phosphate buffered saline (PBS, 8.8 mmol/L Na2HPO4×12 H2O, 1.2 mmol/L KH2PO4, 0.3 mol/L NaCl, pH 7.4) containing 0.05% (w/v) Tween® 20 (PBST) overnight at 4 °C and washed three times with PBST.
Ribosome solution was added (10 µmol/L) and the plate was incubated after centrifugation (2 min, 500× g, Rotor S2096, Allegra^TM 21R, Beckmann Coulter) at 28 °C for 90 min. Cf-labeled peptide was added (10 µL; final concentration of 20 nmol/L; final ribosome concentration of 0.5 µmol/L) and the plate was centrifuged and incubated again (90 min, 28 °C, dark). […] Kd and IC50 values were calculated by fitting the data with a variable slope parameter [y = min + (max − min)/(1 + (x/Kd) ^−Hill slope) ] using SigmaPlot 13 (Systat Software Inc., San Jose, CA, USA). The obtained IC50 values were used to calculate the Ki values.

The test system of a further assay is E. coli BW25113. Nature of the assay: Checkerboard assay (FICI). In kind it is cell-based, Escherichia coli. Particulars: E. coli BW25113, 25% MHB2; synergy FICI ≤ 0.5, antagonism FICI ≥ 4; Table S6. The procedure: Synergy was tested in sterile 96-well plates (polystyrene F-bottom, Greiner Bio-One GmbH) using a total volume of 100 μL per well. […] Plates were incubated (37 °C, 20 h) and the optical density recorded at 595 nm using a microplate reader (Victor3, Perkin Elmer Inc., Waltham, MA, USA). The fractional inhibitory concentration index (FICI) was calculated by the equation FICI = […] = (A/MICA) + (B/MICB), where MICA/B are the MICs of an antimicrobial peptide (A) and one of the three tested antibiotics (B) alone and A and B are the MICs of combined antimicrobials. Synergy was defined as FICI ≤ 0.5, antagonism as FICI ≥ 4 and additive or indifference as FICI between 0.5 and 4.

On to `NC[C@H]1O[C@H](O[C@H]2[C@H](O)[C@@H](O[C@H]3O[C@H](CO)[C@@H](O)[C@H](N)[C@H]3O)[C@H](N)C[C@@H]2N)[C@H](O)[C@@H](O)[C@@H]1O` [Kanamycin, kanamycin sulfate], for which the entries for the “Ki (nmol/L), competition with Cf-ARV-1502” value in the assay on E. coli 70S ribosome and in the assay on E. coli 70S ribosome (listed as kanamycin) were “no fit” and “did not affect the binding of Cf-ARV-1502”, respectively. Besides, the “Checkerboard assay (FICI), antibiotic combined with peptide” value in the assay with E. coli BW25113 is on record as “neither synergistic nor antagonistic effects”.
